Test [1] concerns K. brevis. The test can be described thus: Microscope slide droplet test of additives on living K. brevis. The class given is cell-based, Karenia brevis. The settings on record: microscopy; drop of Gulf of Mexico marine water with at least hundreds of living K. brevis organisms to start; a droplet of additive solution or about 1 to 0 mg solid added.
In test [2] the test system is K. brevis. The test can be described thus: K. brevis cell count in test tubes of sea water after adding red tide inhibitors. The settings on record: 10 ml Gulf of Mexico sea water, initial count at least 1 million K. brevis cells per liter; one drop of concentrated solution or 5 mg solid; counted after two minutes. Format: cell-based, Karenia brevis. As to the method:
Experiments were performed to determine the K. brevis count with various red tide inhibitors.
A microscope with magnification up to 2500 times, was used along with a gridded Sedgewick-Rafter counting slide to record K. brevis cell counts. Testing was performed on Gulf of Mexico sea water containing K. brevis with an initial K. brevis cell count of at least 1 million K. brevis cells per liter. Test tubes contained 10 ml. each of this sea water, to which the following salts and other chemicals were added. For a concentrated solution of the additive, one drop is added and for solid additives, 5 mg is added. The test tubes contents containing the additives were gently mixed and then counts tabulated after two minutes.
Table 1 identifies the additives tested and the resultant cell count.

`[Ca+2].[OH-].[OH-]` [calcium hydroxide]: the “Experimental Results” value in test [1] is “No living K. brevis”.
Take `O=S(=O)([O-])[O-].[Mg+2]` [Concentrated magnesium sulfate solution, magnesium sulfate]: in test [1], the “Experimental Results” value is reported as “No living K. brevis”. Besides, in test [2], the “Cell Count” value is recorded as “None”.
Taken in the same sequence, the figures for `O=S(=O)([O-])[O-].[Cu+2]` [Concentrated copper sulfate solution, copper sulfate] were “No living K. brevis” and “None”.
Taken in the same sequence, the figures for “calcium sulfate [Concentrated calcium sulfate solution]” were “No living K. brevis” and “None”.
With `C[N+](C)(C)C.[Cl-]` [tetamethylammonium chloride], the “Experimental Results” value in test [1] was “No living K. brevis”.
As for `CN(C)c1ccc2nc3ccc(=[N+](C)C)cc-3sc2c1` [Dilute methylene blue solution, methylene blue], in test [1], the “Experimental Results” value was “No living K. brevis”. The “Cell Count” value in test [2] is given as “Very few”.
Take `CN.Cl` [methylammonium chloride]: in test [1], the “Experimental Results” value is listed as “No living K. brevis”.
On to `[Cl-].[Na+]` [Concentrated salt solution, sodium chloride], for which the “Experimental Results” value in test [1] is “No living K. brevis”. Moreover, in test [2], the “Cell Count” value is given as “None”.
As for `[O]=[Ca]` [Solid calcium oxide, calcium oxide], in test [2], the “Cell Count” value was “None”.

The values above are taken from patent US20210347662A1, “METHODS AND APPARATUS FOR CONTROLLING OR […] TIDE” (priority 2020, published 2021).
